Here are results for four compounds from article PMC5077990, “P53 activation inhibits all types of hematopoietic progenitors and all stages of megakaryopoiesis” (Oncotarget, 2016).

In data set [1] the test system is CFU-MK (Colony Forming Unit-Megakaryocyte) progenitors from CD34+ cells. The data set can be described thus: Colony assay in fibrin clot, CFU-MK. The conditions noted are these: CD34+ cells seeded in fibrin clot in the presence of compound; compared to untreated control. Format: cell-based, human. As for the experimental part:
CD34^+cells were obtained from leukapheresis samples after mobilization of donors after informed consent in agreement with our Institute Ethic Committee (Assistance Publique des Hôpitaux de Paris) and in accordance with the Declaration of Helsinki. CD34^+cells were isolated by a positive selection using an immunomagnetic cell sorting system (AutoMacs; Miltenyi Biotec, Bergisch Gladbach, Germany). 500 to 1000 normal CD34^+cells were plated either in 1% methylcellulose assay (StemCells technologies, Vancouver, Canada) to quantify erythroid (BFU-E) and granulo-monocytic (CFU-GM) progenitors or in serum-free fibrin clot assay for quantification of MK progenitors (CFU-MK) in the absence or presence of various concentration of SAR405838 or MI-219. Cultures in methylcellulose were stimulated by addition of human recombinant growth factors: G-CSF (20 ng/mL), IL-3 (10 ng/mL) SCF (25 ng/mL, Biovitrum AB, Stockholm, Sweden), IL-6 (10 ng/mL), FLT3 (10 ng/mL) and human EPO (1 U/mL). Cultures in fibrin clot were stimulated with 10 ng/mL TPO (Kirin Brewery, Tokyo, Japan) and 25 ng/mL SCF. BFU-E and CFU-GM colonies were enumerated at day 14 of culture. […]

For data set [2], the system named is BFU-E (Burst Forming Unit-Erythroid) progenitors from CD34+ cells. The data set can be described thus: Colony assay in methylcellulose, BFU-E. Format: cell-based, human. The conditions noted are these: CD34+ cells seeded in methylcellulose in the presence of compound; compared to untreated control. As for the experimental part:
(§1) CD34^+cells were obtained from leukapheresis samples after mobilization of donors after informed consent in agreement with our Institute Ethic Committee (Assistance Publique des Hôpitaux de Paris) and in accordance with the Declaration of Helsinki. CD34^+cells were isolated by a positive selection using an immunomagnetic cell sorting system (AutoMacs; Miltenyi Biotec, Bergisch Gladbach, Germany). 500 to 1000 normal CD34^+cells were plated either in 1% methylcellulose assay (StemCells technologies, Vancouver, Canada) to quantify erythroid (BFU-E) and granulo-monocytic (CFU-GM) progenitors or in serum-free fibrin clot assay for quantification of MK progenitors (CFU-MK) in the absence or presence of various concentration of SAR405838 or MI-219. Cultures in methylcellulose were stimulated by addition of human recombinant growth factors: G-CSF (20 ng/mL), IL-3 (10 ng/mL) SCF (25 ng/mL, Biovitrum AB, Stockholm, Sweden), IL-6 (10 ng/mL), FLT3 (10 ng/mL) and human EPO (1 U/mL). Cultures in fibrin clot were stimulated with 10 ng/mL TPO (Kirin Brewery, Tokyo, Japan) and 25 ng/mL SCF. BFU-E and CFU-GM colonies were enumerated at day 14 of culture. CFU-MK colonies were enumerated at day 12 after labeling by an indirect immuno-alkaline phosphatase staining technique using an anti-CD41a monoclonal antibody (MoAb; Becton Dickinson, le Pont de Claix, France; clone HIP8), as previously described.

Data set [3] deals with Day 6 megakaryoblasts (ploidization). In words: MK ploidy by flow cytometry (CD41/CD42/vital Hoechst staining). Format: cell-based, human. The following applies: day 6 megakaryoblasts treated 72 hours, analysed day 9; SAR405838 at 1 μM; untreated control 4.4 N. As for the experimental part: First, we investigated if MDM2 inhibitors affect MK ploidization. SAR405838 induced a significant reduction in the mean ploidy (3.0 N at the dose of 1 μM versus 4.4 N for untreated control or for MI-219 treatment) (Supplementary Figure S1). page 1: P53 activation inhibits all types of hematopoietic progenitors and all stages of megakaryopoiesis SUPPLEMENTARY FIGURE Supplementary Figure S1: Effect of SAR405838 on polyploidization. Day 6 megakaryoblasts were treated for 72 hours with various doses of MI-219 or SAR405838. At day 9, ploidy was analyzed by flow cytometry using a CD41/CD42/vital Hoechst staining. N represents the mean ploidy. As shown, SAR405838 induced a significant reduction in the mean ploidy (3.0N at the dose of 1μM versus 4.4N for control or for MI-219 treatment). The Figure illustrates a representative experiment in triplicate. Two other experiments in triplicate gave similar results. […]
(In flow cytometry, cells or beads pass a laser one at a time.)

Data set [4] deals with CFU-GM (Colony Forming Unit-Granulocyte Macrophage) progenitors from CD34+ cells. In words: Colony assay in methylcellulose, CFU-GM. Format: cell-based, human. The following applies: CD34+ cells seeded in methylcellulose in the presence of compound; compared to untreated control. As for the experimental part: as §1, with “BFU-E and CFU-GM colonies were enumerated at day 14 of culture.” left out

Data set [5] deals with p53 pathway in megakaryocytes (MKs). In words: p53 pathway proteins and transcripts in MKs (western-blot, qRT-PCR). Format: cell-based, human. The following applies: day 7-MKs (legend: day 10-MK), 5 μM for 24 or 48 hours. As for the experimental part:
We also explored the effects of p53 stabilization at a later stage of megakaryocytic differentiation. […] Day 7-MKs were treated with 5 μM Nutlin 3a for 24 or 48 hours, which led to an increase in p53, p21, BAX, BCL2 and BCL-XL levels, confirming a functional p53 activity (Figure 6A). […] Similar results were found with day 6-megakaryoblasts treated with two doses of SAR405838 for 72 hours (Figure 6D/6E) without any major effect on the percentage of CD41^+ cells (Figure 6F). […] As shown in Figure 6D/6E, at the dose of 0.5 μM the SAR405838 induced a 50% decreased in the number of viable cells while the apoptotic cells reached 50% of the total cells. We checked if the effect of SAR405838 on MKs could be reverted by the addition of high TPO doses. CD34^+ progenitors were cultured in serum-free medium supplemented with SCF and low dose of TPO (1 ng/mL) for 6 days. Day 6-megakaryoblasts were then treated with 1.5 μM of SAR405838 for 48 hours and various doses of TPO.
In parallel, the expression of P53, BAK, BCL2L1, NOXA, PUMA, BAX, P21 and P53 were quantified by qRT-PCR related to HPRT. C. […] (n=3). […]
PCRs were carried out in the ABI Prism GeneAmp 5700 (Perkin-Elmer) using the Power SYBR-Green PCR Master Mix (ABI) containing the specific primers. The expression levels of all genes were calculated relatively to HPRT or to PPIA housekeeping gene.
Proteins were quantified by Image J software.

On the set-up of data set [6]: method as in PMID 23084521, PMID 24309210. The following applies: clinical and preclinical data in rats and monkeys; cited from earlier work.

In the case of `CC(C)(C)C[C@H]1N[C@@H](C(=O)NCC[C@H](O)CO)[C@H](c2cccc(Cl)c2)[C@@]12C(=O)Nc1cc(Cl)c(F)cc12.Cl` [MI-219], the “dose inducing a 50% reduction of CFU-MK numbers” value in data set [1] is “significant less potent activity compared to SAR405838”. In addition, the “dose inducing a 50% reduction of BFU-E numbers” value in data set [2] is on record as “significant less potent activity compared to SAR405838”. In data set [3], the mean ploidy is recorded as 4.4 N. In addition, in data set [4], the “dose inducing a 50% reduction of CFU-GM numbers” value is recorded as “significant less potent activity compared to SAR405838”.

For `COc1ccc(C2=N[C@@H](c3ccc(Cl)cc3)[C@@H](c3ccc(Cl)cc3)N2C(=O)N2CCNC(=O)C2)c(OC(C)C)c1` [Nutlin 3a], the “p53, p21, BAX, BCL2 and BCL-XL levels (western-blot)” value in data set [5] is recorded as “increase”.

With `COc1ccc(C2=N[C@@H](c3ccc(Cl)cc3)[C@@H](c3ccc(Cl)cc3)N2C(=O)N2CCNC(=O)C2)c(OC(C)C)c1` [Nutlin], the hematological adverse effect entry in data set [6] is on record as “major thrombocytopenia”.

With `CCOc1cc(C(C)(C)C)ccc1C1=N[C@@](C)(c2ccc(Cl)cc2)[C@@](C)(c2ccc(Cl)cc2)N1C(=O)N1CCN(CCCS(C)(=O)=O)CC1` [RG7112], the hematological adverse effect entry in data set [6] is given as “major thrombocytopenia”.
